Data taken from ChEMBL document CHEMBL2150908, “Discovery of 2-Alkyl-1-arylsulfonylprolinamides as 11β-Hydroxysteroid Dehydrogenase Type 1 Inhibitors” (ACS Med Chem Lett, 2012).

How the values were obtained:
[1] = Intrinsic clearance in human liver microsomes assessed as per mg of protein; format: ADME, Microsome; settings: read-out: CLH
[2] = biological target: T1, 11-beta-hydroxysteroid dehydrogenase 1 (Mus musculus, UniProt P50172); assay: Inhibition of mouse 11betaHSD1 by scintillation proximity assay
T1 sequence (P50172 whole entry): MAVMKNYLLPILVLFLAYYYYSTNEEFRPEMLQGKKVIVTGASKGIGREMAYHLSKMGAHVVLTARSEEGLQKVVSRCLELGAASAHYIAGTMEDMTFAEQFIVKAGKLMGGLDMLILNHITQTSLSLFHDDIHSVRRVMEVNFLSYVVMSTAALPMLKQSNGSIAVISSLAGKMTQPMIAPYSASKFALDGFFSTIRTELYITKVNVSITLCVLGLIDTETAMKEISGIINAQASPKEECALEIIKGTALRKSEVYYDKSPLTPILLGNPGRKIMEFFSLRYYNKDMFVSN

[3] = biological target: 11-beta-hydroxysteroid dehydrogenase 1 (Mus musculus) (UniProt P50172); assay: Inhibition of mouse 11betaHSD1 at 100 nM by scintillation proximity assay
11-beta-hydroxysteroid dehydrogenase 1 (Mus musculus), sequence (P50172 whole entry, looked up): as the sequence (P50172 whole entry) above

[4] = biological target: T1, 11-beta-hydroxysteroid dehydrogenase 1; assay: Inhibition of mouse 11betaHSD1 in 3T3L1 cells assessed as conversion of [1,2-(N)3H]-cortisone to cortisol after 1 hr by liquid scintillation counter; format: cell-based, 3T3-L1
[5] = organism: Mus musculus; assay: Clearance in BALB/c mouse; format: ADME, organism-based; settings: in vivo
[6] = AUC (0 to t) in BALB/c mouse at 5 mg/kg, ip; format: ADME, organism-based; set-up: dose 5 mg/kg, route intraperitoneal; settings: plasma
[7] = Bioavailability in BALB/c mouse at 5 mg/kg, ip; format: ADME, organism-based; settings: in vivo
[8] = Oral bioavailability in BALB/c mouse at 5 mg/kg; format: ADME, organism-based; settings: in vivo
[9] = Half life in BALB/c mouse at 1 mg/kg, iv; format: ADME, organism-based; set-up: dose 1 mg/kg, route intravenous; settings: in vivo
[10] = Volume of distribution at steady state in BALB/c mouse; format: ADME, organism-based; settings: in vivo, read-out: Vdss
[11] = biological target: T2, 11-beta-hydroxysteroid dehydrogenase type 2 (Homo sapiens, UniProt P80365); assay: Inhibition of human 11betaHSD2
T2 sequence (P80365 whole entry): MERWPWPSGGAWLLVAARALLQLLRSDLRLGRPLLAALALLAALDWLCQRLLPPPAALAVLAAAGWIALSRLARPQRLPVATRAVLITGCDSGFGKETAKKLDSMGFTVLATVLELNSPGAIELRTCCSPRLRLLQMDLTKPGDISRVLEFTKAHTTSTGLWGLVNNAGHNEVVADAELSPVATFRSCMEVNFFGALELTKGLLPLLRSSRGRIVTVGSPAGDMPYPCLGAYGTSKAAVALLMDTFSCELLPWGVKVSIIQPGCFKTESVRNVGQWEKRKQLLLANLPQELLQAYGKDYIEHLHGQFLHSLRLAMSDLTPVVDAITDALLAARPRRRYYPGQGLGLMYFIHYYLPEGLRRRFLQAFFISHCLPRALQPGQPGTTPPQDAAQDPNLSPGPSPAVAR

[12] = biological target: T3, 11-beta-hydroxysteroid dehydrogenase 1 (Homo sapiens, UniProt P28845); assay: Inhibition of human 11betaHSD1 by scintillation proximity assay
Target sequence in this assay (P28845 whole entry): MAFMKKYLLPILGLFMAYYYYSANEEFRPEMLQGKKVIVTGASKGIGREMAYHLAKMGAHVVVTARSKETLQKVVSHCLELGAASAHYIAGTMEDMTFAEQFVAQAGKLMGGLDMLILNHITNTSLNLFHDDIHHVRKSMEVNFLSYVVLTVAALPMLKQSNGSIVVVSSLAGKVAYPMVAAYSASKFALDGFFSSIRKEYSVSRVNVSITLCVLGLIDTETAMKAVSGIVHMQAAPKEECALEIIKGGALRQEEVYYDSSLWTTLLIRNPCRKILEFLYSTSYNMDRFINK

[13] = biological target: T3, 11-beta-hydroxysteroid dehydrogenase 1; assay: Inhibition of human 11betaHSD1 at 100 nM by scintillation proximity assay
Target sequence in this assay (P28845 whole entry, looked up): as the sequence (P28845 whole entry) above

[14] = system: Mus musculus; assay: Inhibition of 11betaHSD1 in BALB/c mouse using prednisone as substrate assessed as reduction of prednisolone production at 30 mg/kg, ip administered 1 hr prior to substrate addition measured after 2 mins post substrate addition by LC/MS/MS analysis; format: functional; settings: route intraperitoneal
[15] = system: Mus musculus; assay: Inhibition of 11betaHSD1 in BALB/c mouse using prednisone as substrate assessed as reduction of prednisolone production at 10 mg/kg, ip administered 1 hr prior to substrate addition measured after 2 mins post substrate addition by LC/MS/MS analysis; format: functional; settings: route intraperitoneal
[16] = system: Mus musculus; assay: Inhibition of 11betaHSD1 in BALB/c mouse using prednisone as substrate assessed as reduction of prednisolone production at 3 mg/kg, ip administered 1 hr prior to substrate addition measured after 2 mins post substrate addition by LC/MS/MS analysis; format: functional; settings: route intraperitoneal
[17] = system: Mus musculus; assay: Inhibition of 11betaHSD1 in ip dosed BALB/c mouse using prednisone as substrate assessed as reduction of prednisolone production administered 1 hr prior to substrate addition measured after 2 mins post substrate addition by LC/MS/MS analysis; format: functional, organism-based
[18] = system: Mus musculus; assay: Inhibition of 11betaHSD1 in BALB/c mouse using prednisone as substrate assessed as remaining prednisolone level at 3 mg/kg, ip administered 1 hr prior to substrate addition measured after 2 mins post substrate addition by LC/MS/MS analysis; format: functional; settings: route intraperitoneal
[19] = system: Mus musculus; assay: Inhibition of 11betaHSD1 in BALB/c mouse using prednisone as substrate assessed as remaining prednisolone level at 30 mg/kg, ip administered 1 hr prior to substrate addition measured after 2 mins post substrate addition by LC/MS/MS analysis; format: functional; settings: route intraperitoneal
[20] = Plasma concentration in BALB/c mouse at 3 mg/kg, ip administered 1 hr prior to prednisone addition measured after 2 mins post prednisone addition by LC/MS/MS analysis; format: ADME, organism-based; set-up: dose 3 mg/kg, route intraperitoneal
[21] = Plasma concentration in BALB/c mouse at 10 mg/kg, ip administered 1 hr prior to prednisone addition measured after 2 mins post prednisone addition by LC/MS/MS analysis; format: ADME, organism-based; set-up: dose 10 mg/kg, route intraperitoneal
[22] = Plasma concentration in BALB/c mouse at 30 mg/kg, ip administered 1 hr prior to prednisone addition measured after 2 mins post prednisone addition by LC/MS/MS analysis; format: ADME, organism-based; set-up: dose 30 mg/kg, route intraperitoneal
[23] = system: Mus musculus; assay: Inhibition of 11betaHSD1 in BALB/c mouse using prednisone as substrate assessed as remaining prednisolone level at 10 mg/kg, ip administered 1 hr prior to substrate addition measured after 2 mins post substrate addition by LC/MS/MS analysis; format: functional; settings: route intraperitoneal

Row | microsomal CLint [1] [µL/min/mg] | IC50 [2] [nM] | inhibition [3] [%] | SMILES | other results
1 | 499 | 64 | – | Cc1c(Cl)cccc1S(=O)(=O)N1CCC[C@]1(C)C(=O)NC1C2CC3CC(C2)CC1C3 (stereo not given in full) | –
2 | 57 | 97 | – | C[C@]1(C(=O)N[C@H]2C3CC4CC2C[C@](O)(C4)C3)CCCN1S(=O)(=O)c1ccc(Br)s1 | –
3 | 148 | – | 31 | CN(C)c1cccc2c(S(=O)(=O)N3CCC[C@]3(C)C(=O)N[C@H]3C4CC5CC3C[C@](O)(C5)C4)cccc12 | –
4 | 15 | 112 | – | C[C@]1(C(=O)N[C@H]2C3CC4CC2C[C@](O)(C4)C3)CCCN1S(=O)(=O)c1cccs1 | –
5 | 106 | 1.3 | – | Cc1c(Cl)cccc1S(=O)(=O)N1CCC[C@]1(C)C(=O)N[C@H]1C2CC3CC1C[C@](O)(C3)C2 | IC50 [4]: 121 nM; clearance [5]: 90 mL/min/kg; AUC(0-t) [6]: 597 ng·h/mL; bioavailability [7]: 63%; bioavailability [8]: 9.1%; half-life [9]: 14 min; Vd [10]: 0.51 L/kg; IC50 [11]: 2200 nM; IC50 [12]: 0.1 nM
6 | 87 | – | 37 | C[C@]1(C(=O)N[C@H]2C3CC4CC2C[C@](O)(C4)C3)CCCN1S(=O)(=O)c1ccc(-c2ccccc2)cc1 | –
7 | – | 87 | – | C=CC[C@]1(C(=O)N[C@H]2C3CC4CC2C[C@](O)(C4)C3)CCCN1S(=O)(=O)c1cccc2cccnc12 | inhibition [13]: 33%
8 | – | 164 | – | CC[C@]1(C(=O)N[C@H]2C3CC4CC2C[C@](O)(C4)C3)CCCN1S(=O)(=O)c1cccc2cccnc12 | –
9 | 132 | – | 3 | COc1ccc(S(=O)(=O)N2CCC[C@]2(C)C(=O)N[C@H]2C3CC4CC2C[C@](O)(C4)C3)cc1OC | –
10 | – | – | 13 | Cc1c(Cl)cccc1S(=O)(=O)N1CCC[C@]1(C)C(=O)N[C@H]1CC[C@H](O)CC1 | –
11 | 12 | – | 16 | CC(=O)c1ccc(S(=O)(=O)N2CCC[C@]2(C)C(=O)N[C@H]2C3CC4CC2C[C@](O)(C4)C3)cc1 | –
12 | – | 125 | – | C[C@]1(C(=O)N[C@H]2C3CC4CC2C[C@](O)(C4)C3)CCCN1S(=O)(=O)c1ccccc1C#N | –
13 | – | 63 | – | Cc1c(Cl)cccc1S(=O)(=O)N1CCC[C@@]1(C)C(=O)N[C@H]1C2CC3CC1C[C@](O)(C3)C2 | IC50 [12]: 3.1 nM
14 | 64 | – | 26 | CC(O)(c1ccc(S(=O)(=O)N2CCC[C@]2(C)C(=O)N[C@H]2C3CC4CC2C[C@](O)(C4)C3)cc1)C(F)(F)F (stereo not given in full) | –
15 | 140 | – | 9.2 | Cc1c(Cl)cccc1S(=O)(=O)N1CCC[C@]1(C)C(=O)NC1CCCCC1 | –
16 | – | – | 18 | Cc1c(Cl)cccc1S(=O)(=O)N1CCC[C@]1(C)C(=O)NC12CC3CC(CC(O)(C3)C1)C2 | inhibition [13]: 35%
17 | – | – | 15 | CO[C@H]1CC[C@H](NC(=O)[C@@]2(C)CCCN2S(=O)(=O)c2cccc(Cl)c2C)CC1 | inhibition [13]: 37%
18 | – | – | 12 | CC(C)(C)c1ccc(S(=O)(=O)N2CCC[C@]2(C)C(=O)N[C@H]2C3CC4CC2C[C@](O)(C4)C3)cc1 | –
19 | 55 | – | 17 | C[C@]1(C(=O)N[C@H]2C3CC4CC2C[C@](O)(C4)C3)CCCN1S(=O)(=O)c1cccnc1 | –
20 | – | – | 33 | COC(=O)[C@H]1CC2COCC(C1)[C@H]2NC(=O)[C@@]1(C)CCCN1S(=O)(=O)c1cccc(Cl)c1C | –
21 | 134 | 146 | – | C[C@]1(C(=O)N[C@H]2C3CC4CC2C[C@](O)(C4)C3)CCCN1S(=O)(=O)c1ccc(C#N)cc1Cl | –
22 | – | – | 9.5 | CC(O)(c1ccc(S(=O)(=O)N2CCC[C@]2(C)C(=O)N[C@H]2C3CC4CC2C[C@](C#N)(C4)C3)cc1)C(F)(F)F (stereo not given in full) | –
23 | – | – | 14 | COC(=O)[C@]12CC3CC(C1)[C@@H](NC(=O)[C@@]1(C)CCCN1S(=O)(=O)c1ccc(C(C)(O)C(F)(F)F)cc1)C(C3)C2 (stereo not given in full) | –
24 | 430 | – | – | Cc1c(Cl)cccc1S(=O)(=O)N1CCC[C@@H]1C(=O)NC1CCCCC1 | –
25 | 51 | 11 | – | C[C@]1(C(=O)N[C@H]2C3CC4CC2C[C@](O)(C4)C3)CCCN1S(=O)(=O)c1cccc2cccnc12 | IC50 [4]: 11 nM; clearance [5]: 60 mL/min/kg; inhibition in vivo at 30 mg/kg [14]: 89%; inhibition in vivo at 10 mg/kg [15]: 71%; AUC(0-t) [6]: 939 ng·h/mL; bioavailability [7]: 33%; bioavailability [8]: 3%; inhibition in vivo at 3 mg/kg [16]: 34%; inhibition [17]: Dose-dependent effect; half-life [9]: 14 min; Vd [10]: 0.63 L/kg; IC50 [11]: > 10000 nM; IC50 [12]: 7.7 nM; Activity [18]: 66%; Activity [19]: 11%; concentration at 2 min [20]: 28 ng/mL; concentration at 2 min [21]: 80 ng/mL; concentration at 62 min [22]: 94 ng/mL; Activity [23]: 29%
